One may read the GI50 as the concentration at which growth is held to half of that of the control. Read a high GI50 as less potent growth inhibition. Broadly, the EC50 is the concentration that produces a half-maximal response.

One assay deals with N87 cells. Nature of the assay: Cellular proliferation in N87 cells (CellTiter Glo). Type of assay: cell-based, human. The conditions noted are these: 72 h. The method, then: (§1) In addition to the engineered cell lines, the following cell lines were used: BT474 (human breast carcinoma), N87 (human gastric carcinoma), NCI-H1781 (human lung adenocarcinoma), and A431 (human epidermoid carcinoma); all cell lines were obtained from the American Type Culture Collection (ATCC, Manassas, VA). NCI-H1781 were grown in complete RPMI 1640 (Life Technologies, Carlsbad, CA) supplemented with 15% fetal bovine serum (FBS, Life Technologies, Carlsbad, CA) and 1% Penicillin-Streptomycin (P/S, Life Technologies, Carlsbad, CA). N87 cells were grown in complete RPMI 1640 supplemented with 10% FBS and 1% P/S. BT474 and A431 cells were grown in DMEM (Life Technologies, Carlsbad, CA) supplemented with 10% FBS and 1% P/S. All cells were maintained and propagated in a humidified 5% CO2 incubator at 37° C.
Cell proliferation in adherent cells was investigated in two HER2 amplified cell lines (BT474, N87), and a HER2VC expressing cell line (NCI-H1781). BT474, NCI-H1781, and N87 were plated in their appropriate growth media supplemented with either 10% FBS (BT474, N87) or 15% FBS (NCI-H1781) and 1% P/S in 96-well white clear-bottom tissue culture plates (Costar, Sigma-Aldrich). The starting cell densities were 3500, 5500, and 5000 cells for BT474, NCI-H1781, and N87 cells, respectively. An 8-point standard curve with varying cell densities (starting at 50000 cells and serially diluting down 2-fold) was prepared for each cell line and read 6 h after plating. Cells were allowed to attach overnight prior to compound treatment. Compound solutions were prepared by serially diluting test compounds in DMSO (Sigma-Aldrich), then diluting 500× in their corresponding serum free media. Cells were treated by adding a 1:1 volume of test compound to a final concentration of […], 0.004, 0.0014, or 0.0005 μM, in 0.1% DMSO and 5% FBS (for BT474 and N87) or 7.5% FBS (NCI-H1781). In BT474 and NCI-H1781, cell media was replaced and cells were redosed with fresh test compound solutions after 72 h. Viability was determined by CellTiter Glo (Promega, Madison, WI) after 72 h for N87 cells, and after 120 h for BT474 and […] cells. The results were converted to cell numbers using a standard curve; growth inhibition (GI50 values) were determined by Graph Pad Prism. […] The results are provided in Table 4, under columns titled “BT474-GI50”, “N87-GI50”, and “NCI-H1781-GI50”.
(ATP-based viability assays read luminescence as a measure of living cells.)

The target in a further assay is T1, HER2VC (G776delinsVC) (Homo sapiens, UniProt P04626, G776C/INS775V).
T1 construct: NCI-H1781 cells which endogenously expresses a HER2 mutant protein; endogenous in cells; host or cells: NCI-H1781
Put plainly: HER2 signaling (pHER2) in NCI-H1781 cells. The format is cell-based. The following applies: 1.5 hr compound, 1% FBS. The method, then: as §1
(§2) HER2 signaling was assessed in BT474 and N87 cell lines which endogenously overexpress the HER2 wildtype (WT) protein, in NCI-H1781 cells which endogenously expresses a HER2 mutant protein containing a VC insertion in the kinase domain (HER2VC or G776delinsVC), and in engineered cell lines transduced to express the Her2 mutant protein containing the YVMA insertion (Hek293-HER2YVMA and BEAS2B-HER2YVMA).
(§3) BT474, N87, and NCI-H1781 were plated in 96-well tissue-culture treated plates (Corning Costar, Sigma-Aldrich) in full media and incubated overnight. Hek293-HER2YVMA and BEAS2B-HER2YVMA cells were plated in 96-well poly-D-lysine treated plates (BD Bioscience, San Jose, CA). For treatment with test compounds, the media was replaced with corresponding low serum media (1% FBS) containing test compound at 1.1, 0.37, 0.12, 0.041, 0.014, 0.005, 0.0014, 0.0005 μM or DMSO control (0.1%). Cells were incubated with compound for 1.5 hr at 37° C. After compound treatment, the media was removed and cells were lysed for 30 min on ice in complete MSD lysis buffer (prepared using MSD base lysis buffer (Meso-Scale Discovery) supplemented with cOmplete, EDTA-free Protease inhibitor cocktail (Roche), Phosphatase Inhibitor Cocktails 2 and 3 (Sigma-Aldrich), and 1 mM PMSF (Sigma-Aldrich)). Lysates were stored at −70° C. until further analysis.
(§4) HER2 signaling was evaluated using phospho (Tyr1248)/total ErbB2 whole cell lysate MSD plates (Meso-Scale Discovery, Gaithersburg, MD). The phospho HER2 signal was normalized to total HER2 for each sample; results are reported as % DMSO control. The normalized data was fitted using a sigmoidal curve analysis program (Graph Pad Prism version 6) with variable Hill slope to determine EC50 values.
(§5) The HER2 signaling results are provided in Table 4, under columns titled “BT474-pHER2 EC50”, “N87-pHER2 EC50”, and “NCI-H1781-pHER2 EC50”. Hek293-HER2YVMA ins fall under the heading “HEKYVMA-pHER2 EC50”, Ba/F3 HER2YVMA fall under the heading “Ba/F3 YVMA-pHER2 EC50” and BEAS2B-HER2YVMA fall under the heading “BEAS2B YVMA-pHER2 EC50”.

Assay [1] concerns the target T2, HER2 wildtype (WT) protein (Homo sapiens, UniProt P04626).
T2 construct: BT474 and N87 cell lines which endogenously overexpress the HER2 wildtype (WT) protein; endogenous in cells; host or cells: BT474, N87
Put plainly: HER2 signaling (pHER2 Tyr1248/total HER2 MSD) in N87 cells. The following applies: 1.5 hr compound, 1% FBS. The format is cell-based. The method, then: as §1, §2, §3, §4, §5

Structures are written as SMILES.

T2 sequence (P04626 23-1255): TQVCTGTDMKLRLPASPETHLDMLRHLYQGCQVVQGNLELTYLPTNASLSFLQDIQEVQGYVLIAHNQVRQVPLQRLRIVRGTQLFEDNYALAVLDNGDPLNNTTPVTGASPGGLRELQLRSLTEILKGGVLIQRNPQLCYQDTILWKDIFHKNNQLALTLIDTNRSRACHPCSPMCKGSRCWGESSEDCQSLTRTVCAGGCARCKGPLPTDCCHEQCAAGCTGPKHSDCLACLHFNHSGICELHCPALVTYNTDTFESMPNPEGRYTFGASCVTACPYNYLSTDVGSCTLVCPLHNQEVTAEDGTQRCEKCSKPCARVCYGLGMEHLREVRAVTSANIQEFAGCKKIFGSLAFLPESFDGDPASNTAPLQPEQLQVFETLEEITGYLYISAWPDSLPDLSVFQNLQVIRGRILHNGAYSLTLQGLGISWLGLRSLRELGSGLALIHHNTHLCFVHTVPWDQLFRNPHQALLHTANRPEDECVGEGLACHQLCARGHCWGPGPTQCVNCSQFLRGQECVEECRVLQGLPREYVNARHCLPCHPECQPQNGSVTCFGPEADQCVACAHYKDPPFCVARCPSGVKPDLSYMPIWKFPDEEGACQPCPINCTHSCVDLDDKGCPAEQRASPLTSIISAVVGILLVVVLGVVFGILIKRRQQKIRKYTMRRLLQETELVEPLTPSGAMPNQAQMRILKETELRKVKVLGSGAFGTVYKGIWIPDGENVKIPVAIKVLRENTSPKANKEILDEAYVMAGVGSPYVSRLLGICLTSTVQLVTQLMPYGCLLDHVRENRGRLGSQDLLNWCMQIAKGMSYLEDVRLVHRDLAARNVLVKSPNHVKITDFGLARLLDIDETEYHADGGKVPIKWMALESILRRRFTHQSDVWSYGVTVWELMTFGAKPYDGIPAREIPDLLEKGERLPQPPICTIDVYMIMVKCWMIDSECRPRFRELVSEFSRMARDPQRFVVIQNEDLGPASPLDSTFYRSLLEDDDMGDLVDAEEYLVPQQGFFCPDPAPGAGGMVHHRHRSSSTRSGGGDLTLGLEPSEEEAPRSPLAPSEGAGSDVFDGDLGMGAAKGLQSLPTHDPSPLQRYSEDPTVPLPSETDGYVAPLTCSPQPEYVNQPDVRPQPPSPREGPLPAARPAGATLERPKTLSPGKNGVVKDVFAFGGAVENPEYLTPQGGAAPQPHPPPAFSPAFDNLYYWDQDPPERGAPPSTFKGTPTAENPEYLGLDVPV
T1 sequence (P04626 with tags, fused parts or gaps INS775V/G776C): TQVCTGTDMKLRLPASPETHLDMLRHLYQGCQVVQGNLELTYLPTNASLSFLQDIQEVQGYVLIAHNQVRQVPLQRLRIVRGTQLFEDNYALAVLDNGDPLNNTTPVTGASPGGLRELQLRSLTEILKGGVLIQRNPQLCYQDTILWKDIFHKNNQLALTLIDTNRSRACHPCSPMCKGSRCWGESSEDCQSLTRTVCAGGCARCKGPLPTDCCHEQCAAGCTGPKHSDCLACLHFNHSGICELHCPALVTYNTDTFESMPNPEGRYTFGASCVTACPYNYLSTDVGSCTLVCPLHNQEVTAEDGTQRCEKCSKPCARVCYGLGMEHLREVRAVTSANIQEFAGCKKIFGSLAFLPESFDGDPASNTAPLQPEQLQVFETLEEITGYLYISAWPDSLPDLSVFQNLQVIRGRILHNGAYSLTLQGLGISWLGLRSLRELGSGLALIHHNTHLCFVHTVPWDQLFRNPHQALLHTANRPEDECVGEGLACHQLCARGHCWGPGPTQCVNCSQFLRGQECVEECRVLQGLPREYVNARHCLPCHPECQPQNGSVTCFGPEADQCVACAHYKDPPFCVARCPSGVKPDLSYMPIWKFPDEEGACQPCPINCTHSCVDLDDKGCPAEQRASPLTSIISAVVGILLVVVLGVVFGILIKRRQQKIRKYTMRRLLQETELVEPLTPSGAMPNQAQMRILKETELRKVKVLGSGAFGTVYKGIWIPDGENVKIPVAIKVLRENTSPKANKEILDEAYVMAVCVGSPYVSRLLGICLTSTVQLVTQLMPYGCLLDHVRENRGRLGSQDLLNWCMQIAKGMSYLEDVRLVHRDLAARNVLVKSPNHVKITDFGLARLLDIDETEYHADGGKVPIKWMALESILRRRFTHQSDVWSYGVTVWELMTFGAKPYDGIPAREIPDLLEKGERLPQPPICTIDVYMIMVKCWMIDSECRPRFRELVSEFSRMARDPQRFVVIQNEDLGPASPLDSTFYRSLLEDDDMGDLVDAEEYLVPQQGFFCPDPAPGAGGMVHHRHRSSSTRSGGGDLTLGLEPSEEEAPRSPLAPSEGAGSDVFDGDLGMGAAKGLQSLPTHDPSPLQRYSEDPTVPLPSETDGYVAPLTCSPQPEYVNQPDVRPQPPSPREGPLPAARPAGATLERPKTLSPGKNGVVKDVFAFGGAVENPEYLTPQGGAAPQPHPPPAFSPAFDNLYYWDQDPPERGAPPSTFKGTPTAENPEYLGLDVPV

Take `Cc1ccc(Oc2ccc(Nc3ncnc4sc5c(c34)CN(C(=O)/C=C/CN(C)C)C5)cc2C)cn1` [Compound 99, (E)-4-(dimethylamino)-1-(4-((3-methyl-4-((6-methylpyridin-3-yl)oxy)phenyl)amino)-5,7-dihydro-6H-pyrrolo[3′,4′:4,5]thieno[2,3-d]pyrimidin-6-yl)but-2-en-1-one]: in the assay with N87 cells (Homo sapiens), the GI50 is less than 100 nM.
`Cc1cc(Nc2ncnc3sc4c(c23)CCN(C(=O)/C=C/CN(C)C)C4)ccc1Oc1ccc2ncnn2c1` [Compound 3, (E)-1-(4-((4-([1,2,4]triazolo[1,5-a]pyridin-6-yloxy)-3-methylphenyl)amino)-5,8-dihydropyrido[4′,3′:4,5]thieno[2,3-d]pyrimidin-7(6H)-yl)-4-(dimethylamino)but-2-en-1-one]: the EC50 at HER2VC (G776delinsVC) was less than 100 nM.
The molecule `Cc1ccc(Oc2ccc(Nc3ncnc4sc5c(c34)C(C)CN(C(=O)C=CCN(C)C)C5)cc2C)cn1` (single isomer, unassigned) [Compound 106] displayed a GI50 with N87 cells of less than 100 nM. Further, the EC50 (at HER2VC (G776delinsVC); in assay [1]) was less than 100 nM in each case.
With `Cc1ccc(Oc2ccc(Nc3ncnc4sc5c(c34)CCN(C(=O)/C=C/CN(C)C(C)(C)C)C5)cc2C)cn1` [Compound 33], in the assay on N87 cells (Homo sapiens), the GI50 was less than 100 nM. The EC50 (at HER2VC (G776delinsVC); in assay [1]) was less than 100 nM each time.
In the assay on N87 cells (Homo sapiens), `Cc1ccc(Oc2ccc(Nc3ncnc4sc5c(c34)CCN(C(=O)/C=C/CN(C)C)CC5)cc2C)cn1` [Compound 100, (E)-4-(dimethylamino)-1-(4-((3-methyl-4-((6-methylpyridin-3-yl)oxy)phenyl)amino)-8,9-dihydro-5H-pyrimido[5′,4′:4,5]thieno[2,3-d]azepin-7(6H)-yl)but-2-en-1-one] gave a concentration for 50% growth inhibition (GI50) of less than 100 nM. The EC50 (on HER2VC (G776delinsVC); in assay [1]) was less than 100 nM each time.
Consider `C=CC(=O)N1CCc2c(sc3ncnc(Nc4ccc(Oc5ccc6ncnn6c5)c(Cl)c4)c23)C1` [Compound 4, 1-(4-((4-([1,2,4]triazolo[1,5-a]pyridin-6-yloxy)-3-chlorophenyl)amino)-5,8-dihydropyrido[4′,3′:4,5]thieno[2,3-d]pyrimidin-7(6H)-yl)prop-2-en-1-one], for which the EC50 at HER2VC (G776delinsVC) was less than 100 nM.
For `Cc1ccc(Oc2ccc(Nc3ncnc4sc5c(c34)C(C)CN(C(=O)/C=C/CN(C)C)C5)cc2C)cn1` (centres unmarked) [Compound 98, (E)-4-(dimethylamino)-1-(5-methyl-4-((3-methyl-4-((6-methylpyridin-3-yl)oxy)phenyl)amino)-5,8-dihydropyrido[4′,3′:4,5]thieno[2,3-d]pyrimidin-7(6H)-yl)but-2-en-1-one], in the assay with N87 cells (Homo sapiens), the concentration for 50% growth inhibition (GI50) is less than 100 nM. The EC50 at HER2VC (G776delinsVC) was less than 100 nM.
As for `Cc1ccc(Oc2ccc(Nc3ncnc4sc5c(c34)C(C)CN(C(=O)C=CCN(C)C)C5)cc2C)cn1` (single isomer, unassigned) [Compound 105], in the assay on N87 cells (Homo sapiens), the GI50 was less than 100 nM. The EC50 (on HER2VC (G776delinsVC); in assay [1]) was less than 100 nM each time.
In the assay on N87 cells (Homo sapiens), `COc1ccc(Oc2ccc(Nc3ncnc4sc5c(c34)CCN(C(=O)/C=C/CN(C)C)C5)cc2C)cn1` [Compound 95, (E)-4-(Dimethylamino)-1-(4-((4-((6-methoxypyridin-3-yl)oxy)-3-methylphenyl)amino)-5,6-dihydropyrido[4′,3′:4,5]thieno[2,3-d]pyrimidin-7(8H)-yl)but-2-en-1-one] yielded a 50% growth inhibitory concentration (GI50) of less than 100 nM. The EC50 (on HER2VC (G776delinsVC); in assay [1]) was less than 100 nM throughout.
In turn, `Cc1ccc(Oc2ccc(Nc3ncnc4sc5c(c34)CCN(C(=O)/C=C/CN3CC4C(CO)C4C3)C5)cc2C)cn1` (centres unmarked) [Compound 34] showed a concentration for 50% growth inhibition (GI50) with N87 cells (Homo sapiens) of less than 100 nM. Moreover, the EC50 (on HER2VC (G776delinsVC); in assay [1]) was less than 100 nM throughout.
As for `CN(C)C/C=C/C(=O)N1CCc2c(sc3ncnc(Nc4ccc(Oc5ccc6ncnn6c5)c(Cl)c4)c23)C1` [Compound 5, (E)-1-(4-((4-([1,2,4]triazolo[1,5-a]pyridin-6-yloxy)-3-chlorophenyl)amino)-5,8-dihydropyrido[4′,3′:4,5]thieno[2,3-d]pyrimidin-7(6H)-yl)-4-(dimethylamino)but-2-en-1-one], the EC50 (on HER2VC (G776delinsVC); in assay [1]) was less than 100 nM in each case.
Molecule `Cc1ccc(Oc2ccc(Nc3ncnc4sc5c(c34)CCN(C(=O)/C=C/CN3CCCOCC3)C5)cc2C)cn1` [Compound 42] showed a GI50 in the assay on N87 cells (Homo sapiens) of less than 100 nM.
